Results reported in US20040198815A1, “Antimicrobial and anticancer properties of methyl-beta-orcinolcarboxylate from lichen (Everniastrum cirrhatum)” (priority 2003, published 2004).
Converted amounts (≈) assume the structure as drawn.

How the values were obtained:
[1] = test system: Saccharomyces cerevisiae erg 6 (amphotericin and nystatin resistant); settings: 80 μg/disc
Description: (§1) The drug resistance property of the mutants was studied by standardized disc diffusion assay (Bauer at al 1966, American Journal of Clinical Pathology 45: 493-496) with slight modifications. The discs were prepared (5 mm diameter made of Whatman #3 filter paper) by impregnating 8 μl of test compound and placing them on pre-inoculated agar surface.
(§2) A disc containing only the solvent was used as the control. A zone of growth inhibition surrounding the disc is indicative of the […] nature of the strains to antibiotics.
(§3) The pure compound isolated was then tested against polyene and azole resistant strains of Candida albicans. […] In another experiment well-defined amphotericin and nystatin resistant strains of Saccharomyces cerevisiae were used in the assay. These strains designated as erg 2 and erg 6 carry mutations in the ergosterol biosynthetic pathway and therefore are unable to synthesize ergosterol which are the binding site of polyene drugs. Therefore absence of erostreol results in polyene resistance.

[2] = test system: Candida albicans mutant strain Clo 28R; test: microbe, parasite or virus in culture; format: cell-based
Description: (§4) C. albicans was grown to log phase in Sabouraud's dextrose broth (5 ml) for 48 hrs at 37° C. in a shaker at 250 rpm. The cells were pelleted by centrifugation at 5000 rpm at 4° C. and the pellet was dissolved in 5 ml phosphate buffered saline PBS (6.8 pH). The culture was divided in to five groups of 1 ml each in eppendrof tubes.
(§5) Ethyl methane sulfonate (EMS) was added to each of the culture tube @ 0.1% (v/v) and allowed to grow for 40 min. Then the mutagen was completely washed off thrice by repeatedly pelleting the cells and re-dissolving in PBS. The mutagenized stocks was then diluted in Sabouraud's dextrose broth two folds and allowed to grow for 6 hrs at 37° C. in a shaker at 250 rpm. Titre of the cells before treatment with EMS and immediately after treatment with EMS was calculated to obtain the killing percentage in each of the five tubes. The mutagenized and fixed cultures were then plated in Sabouraud's dextrose agar containing different concentration of amphotericin, nystatin and clotrimazole.
(§6) The colonies found growing after 5th day from each of the five mutagenized stocks were then purified thrice separately by streaking in the same medium containing the antibiotics.

[3] = test system: Candida albicans mutant strain Clo 31R; test: microbe, parasite or virus in culture; format: cell-based
Description: as §4, §5, §6

[4] = test system: Candida albicans mutant strain NYS 26R; test: microbe, parasite or virus in culture; format: cell-based
Description: as §4, §5, §6

[5] = test system: Candida albicans mutant strain NYS 4R; test: microbe, parasite or virus in culture; format: cell-based
Description: as §4, §5, §6

[6] = test system: Saccharomyces cerevisiae erg 2 (amphotericin and nystatin resistant); test: disc diffusion assay, S. cerevisiae erg 2; settings: 80 μg/disc
Description: as §1, §2, §3

[7] = test system: Candida albicans mutant strain Amph 100R; test: disc diffusion assay, mutant Amph 100R; format: cell-based; settings: for zone of inhibition at 80 µg/disc: Candida albicans, read-out: Net zone of growth inhibition
Description: as §4, §5, §6

[8] = test system: Saccharomyces Cerevisiae ABC 287 (WT); test: disc diffusion assay, wild type Saccharomyces cerevisiae; format: cell-based; settings: 80 μg/disc; for zone of inhibition at 80 µg/disc: read-out: Net zone of growth inhibition
Description: as §1, §2, §3

[9] = test system: Candida albicans MTCC 1637 (Wild Type); test: disc diffusion assay, wild type Candida albicans; format: cell-based; settings: for zone of inhibition at 80 µg/disc: MTCC1637, read-out: Net zone of growth inhibition
Description: as §1, §2

[10] = test system: Candida albicans mutant strain Amph D1R; test: microbe, parasite or virus in culture; format: cell-based
Description: as §4, §5, §6

[11] = test system: Candida albicans mutant strain Amph C7R; test: microbe, parasite or virus in culture; format: cell-based
Description: as §4, §5, §6

[12] = test system: Candida albicans mutant strain Amph C6R; test: microbe, parasite or virus in culture; format: cell-based
Description: as §4, §5, §6

[13] = test system: Candida albicans mutant strain Amph A8R; test: microbe, parasite or virus in culture; format: cell-based
Description: as §4, §5, §6

[14] = test system: ovarian (PA-1) cancer cell line; test: MTT cytotoxicity testing in vitro, PA-1; format: cell-based; settings: Homo sapiens, 6 h exposure then 48 h
Description: (§7) Cytotoxicity testing in vitro was done by the method of Woerdenbag et al.,1993; J.Nat.Prod. 56 (6): 849-856). 2×10^3 cells/well were incubated in the 5% CO2 incubator for 24 h to enable them to adhere properly to the 96 well polysterene microplate (Grenier, Germany). Test compounds dissolved in 100% DMSO (Merck, Germany) in at least five doses were added and left for 6 h after which the compound plus media was replaced with fresh media and the cells were incubated for another 48 h in the CO2 incubator at 37° C. […] Sigma M 2128] was added, and plates were incubated at 37° C. for 4 h. 100 μl dimethyl sulfoxide (DMSO, Merck, Germany) were added to all wells and mixed thoroughly to dissolve the dark blue crystals. After a few minutes at mom temperature to ensure that all is crystals were dissolved, the plates were read on a SpectraMax 190 Mcroplate Elisa reader (Molecular Devices Inc., USA), at 570 nm. Plates were normally read within 1 h of adding the DMSO.

[15] = test system: liver (WRL-68) cancer cell line; test: MTT cytotoxicity testing in vitro, WRL-68; format: cell-based; settings: Homo sapiens, WRL68, 6 h exposure then 48 h
Description: as §7

[16] = test system: colon (Caco-2) cancer cell line; test: MTT cytotoxicity testing in vitro, Caco-2; format: cell-based; settings: Homo sapiens, Caco2, 6 h exposure then 48 h
Description: Cytotoxicity testing in vitro was done by the method of Woerdenbag et al.,1993; J.Nat.Prod. […] 2×10^3 cells/well were incubated in the 5% CO2 incubator for 24 h to enable them to adhere properly to the 96 well polysterene microplate (Grenier, Germany). […] Then, 10 μl MTT [3-(4,5-dimethylthiazol-2-yl)-2,5-diphenyltetrazolium bromide; Sigma M 2128] was added, and plates were incubated at 37° C. for 4 h. 100 μl dimethyl sulfoxide (DMSO, Merck, Germany) were added to all wells and mixed thoroughly to dissolve the dark blue crystals. […] Plates were normally read within 1 h of adding the DMSO.

[17] = test system: polyene drug resistant Saccharomyces cerevisiae; test: activity against polyene resistant S. cerevisiae (as a group); format: cell-based; settings: erg 2 and erg 6 strains
Excerpt: Therefore absence of erostreol results in polyene resistance.

[18] = test system: polyene and azole resistant strains of Candida albicans; format: cell-based
Description: Ethanol extract was prepared and tested against Candida albicans MTCC 1637 (equivalent to ATCC 18804) the fungi that cause different forms of candidiasis in humans and drug resistant mutants of the fungi.

(MCF-7) cancer cell line = test: MTT cytotoxicity testing in vitro, MCF-7; format: cell-based; settings: Homo sapiens, MCF7, 6 h exposure then 48 h
Description: as §7

[19] = test system: ovarian (MCF-7) cancer cell line; test: MTT cytotoxicity testing in vitro, MCF-7; format: cell-based; settings: Homo sapiens, MCF7, 6 h exposure then 48 h
Description: as §7

[20] = test system: oral (KB 403) cancer cell line; test: MTT cytotoxicity testing in vitro, KB 403; format: cell-based; settings: Homo sapiens, KB403, 6 h exposure then 48 h
Description: as §7

Saccharomyces cerevisiae = settings: Caccamese et al (1985); cited from earlier work
[21] = in-vitro ergosterol binding assay
Description: Therefore, the ability of lichen compounds to bind to ergosterol was also investigated using in-vitro ergosterol binding assay (Antonio & Molinski 1993; J.Natl.Prod.56:54-61).

[22] = Candida albicans, read-out: Net zone of growth inhibition
[23] = Candida albicans MTCC (Wild Type), 80 μg/disc

C[C@@H]1[C@H](O)[C@@H](C)/C=C/C=C/C=C/C=C/C=C/C=C/C=C/[C@H](O[C@@H]2O[C@H](C)[C@@H](O)[C@H](N)[C@@H]2O)C[C@@H]2O[C@](O)(C[C@@H](O)C[C@@H](O)[C@H](O)CC[C@@H](O)C[C@@H](O)CC(=O)O[C@H]1C)C[C@H](O)[C@H]2C(=O)O [Amphotericin]
Net zone of growth inhibition [1]: 5 mm
zone of inhibition at 80 µg/disc [2, 22]: 12 mm
zone of inhibition at 80 µg/disc [3, 22]: 6 mm
zone of inhibition at 80 µg/disc [4, 22]: 4 mm
zone of inhibition at 80 µg/disc [5, 22]: 2 mm
Net zone of growth inhibition [6]: 6 mm
zone of inhibition at 80 µg/disc [7]: 2 mm
zone of inhibition at 80 µg/disc [8]: 8 mm
zone of inhibition at 80 µg/disc [9, 23]: 9 mm

Clc1ccccc1C(c1ccccc1)(c1ccccc1)n1ccnc1 [Clotrimazole, reference compound]
zone of inhibition at 80 µg/disc [2, 22]: 14 mm
zone of inhibition at 80 µg/disc [3, 22]: 11 mm
zone of inhibition at 80 µg/disc [4, 22]: 19 mm
zone of inhibition at 80 µg/disc [10, 22]: 27 mm
zone of inhibition at 80 µg/disc [11, 22]: 12 mm
zone of inhibition at 80 µg/disc [12, 22]: 10 mm
zone of inhibition at 80 µg/disc [5, 22]: 20 mm
zone of inhibition at 80 µg/disc [13, 22]: 22 mm
zone of inhibition at 80 µg/disc [7]: 25 mm
zone of inhibition at 80 µg/disc [9, 23]: 17 mm

COC(=O)c1c(C)cc(O)c(C)c1O [Methyl-β-orcinolcarboxylate, methyl-β-orcinolcarboxylate]
IC50 [14]: 0.025 µg/mL (≈ 0.127 µM)
IC90 [14]: 4 µg/mL (≈ 20.4 µM)
IC50 [15]: 1 µg/mL (≈ 5.1 µM)
IC90 [15]: 5 µg/mL (≈ 25.5 µM)
IC50 [16]: 1.5 µg/mL (≈ 7.65 µM)
IC90 [16]: 3.5 µg/mL (≈ 17.8 µM)
growth inhibition of polyene drug resistant Saccharomyces cerevisiae (in words) [17]: able to specifically inhibit the growth
Net zone of growth inhibition [1]: 6 mm
zone of inhibition at 80 µg/disc [2, 22]: 4 mm
zone of inhibition at 320 µg/disc [2, 22]: 6 mm
zone of inhibition at 80 µg/disc [3, 22]: 3 mm
zone of inhibition at 320 µg/disc [3, 22]: 4 mm
zone of inhibition at 40 µg/disc [4, 22]: 2 mm
zone of inhibition at 80 µg/disc [4, 22]: 6 mm
zone of inhibition at 320 µg/disc [4, 22]: 8 mm
zone of inhibition at 80 µg/disc [10, 22]: 4 mm
zone of inhibition at 320 µg/disc [10, 22]: 6 mm
zone of inhibition at 40 µg/disc [11, 22]: 2 mm
zone of inhibition at 80 µg/disc [11, 22]: 5 mm
zone of inhibition at 320 µg/disc [11, 22]: 7 mm
zone of inhibition at 40 µg/disc [12, 22]: 2 mm
zone of inhibition at 80 µg/disc [12, 22]: 4 mm
zone of inhibition at 320 µg/disc [12, 22]: 5 mm
zone of inhibition at 40 µg/disc [5, 22]: 2 mm
zone of inhibition at 80 µg/disc [5, 22]: 7 mm
zone of inhibition at 320 µg/disc [5, 22]: 8 mm
zone of inhibition at 40 µg/disc [13, 22]: 1 mm
zone of inhibition at 80 µg/disc [13, 22]: 2 mm
zone of inhibition at 320 µg/disc [13, 22]: 4 mm
Net zone of growth inhibition [6]: 6 mm
activity against drug resistant strains of C. albicans (in words) [18]: able to inhibit the growth of drug resistant strains in a dose dependant manner
IC50 ((MCF-7) cancer cell line): 1 µg/mL (≈ 5.1 µM)
IC90 [19]: 5.5 µg/mL (≈ 28 µM)
zone of inhibition at 80 µg/disc [8]: 2 mm
IC50 [20]: 0.04 µg/mL (≈ 0.204 µM)
IC90 [20]: 4.5 µg/mL (≈ 22.9 µM)
growth inhibition of yeast strains such as Saccharomyces cerevisiae (in words) (Saccharomyces cerevisiae): inhibit the growth
ergosterol-binding property [21]: does not possess ergosterol-binding property
growth inhibition of the wild type strain (in words) ([9]; wild type Candida albicans): inactive

C[C@@H]1[C@H](O)[C@@H](C)/C=C/C=C/CC/C=C/C=C/C=C/C=C/C(O[C@H]2O[C@H](C)[C@@H](O)[C@H](N)[C@@H]2O)CC2O[C@](O)(CC(O)C(O)CCC(O)CC(O)CC(O)CC(=O)O[C@H]1C)CC(O)C2C(=O)O (some centres unmarked) [Nystatin]
Net zone of growth inhibition [1]: 13 mm
Net zone of growth inhibition ([2]; Clo 28R, 80 μg/disc): 21 mm
Net zone of growth inhibition ([3]; Clo 31R, 80 μg/disc): 17 mm
Net zone of growth inhibition ([4]; NYS 26R, 80 μg/disc): 9 mm
Net zone of growth inhibition ([10]; Amph D1R, 80 μg/disc): 4 mm
Net zone of growth inhibition ([11]; Amph C7R, 80 μg/disc): 2 mm
Net zone of growth inhibition ([12]; Amph C6R, 80 μg/disc): 4 mm
Net zone of growth inhibition ([5]; NYS 4R, 80 μg/disc): 8 mm
Net zone of growth inhibition ([13]; Amph A8R, 80 μg/disc): 3 mm
Net zone of growth inhibition [6]: 16 mm
Net zone of growth inhibition ([7]; Amph 100R, 80 μg/disc): 13 mm
Net zone of growth inhibition [8]: 23 mm
Net zone of growth inhibition [9, 23]: 22 mm
